Test results as given in US20040048747A1, “Product formulation and method of its application for increasing the efficiency of systemic herbicides” (priority 2000, published 2004).

How the values were obtained:
Type in all cases: in vivo
[1] = tested on: dandelion (Taraxacum cordátum Palmgr.); experiment: Greenhouse pot spray test, selected formates with selected systemic herbicides (Example 3), dandelion; conditions: for desiccation of the leaves / damage (necrosis): formates 3000 ml (g) per decar, 6, 14 and 21 days after spraying
Experimental: Potassium diformate in a 50% water/volume solution (coded K-diform in the enclosed graphs). Potassium formate (50% w/v) (coded K-form in the enclosed graphs). Solid calcium formate solid was dissolved in water and coded Ca-form in the enclosed graphs. Dose rates applied were: 0 and 3000 ml (g) per decar (10^3 m^2).
“Roundup Bio” (360 gram/litre glyphosate), “Arsenal 250” (250 gram/litre imazapyr) and “Titus” (250 gram/kg rimsulfuron). The herbicides were applied at dose rates: 10%-40% of full rate:
Adjuvant: 0.1% wetting agent (“DP-spredemiddel”)
The formates, herbicides and adjuvants were mixed before spraying and applied at a calculated spray volume of 50 litre per decar (10^3 m^2). Seven pots were given each treatment.
The investigations were done on dandelion (Taraxacum cordátum Palmgr.):
The dandelion seeds were sown June 20 and transplanted to 13 cm plastic pots, one plant per pot. The plants were raised in a greenhouse. The spraying was carried out August 1 and the plants kept in greenhouse until harvest. Greenhouse conditions: 20-25° C. in 16 hrs, 14° C. in 8 hrs. Day length: 16 hrs artificial light.
Assessments of damage (necrosis): 6, 14 and 21 days after treatment (DAT). Regrowth and fresh weight were assessed 21 days after spraying.

[2] = tested on: Dandelion (Taráxacum cordátum); experiment: Greenhouse pot spray test, potassium diformate and glyphosate combinations (Example 1), dandelion; conditions: glyphosate alone, compared with the combination
Description: (§1) The aim of this experiment was to investigate if a small dose of glyphosate, a foliage applied systemic herbicide, could extend the herbicide effect of potassium diformate. This is in particular important in perennial weeds, but also to have a complete kill of annual weeds.
(§2) Control of annual weeds will be essential in garden paths, roads, roadsides and other areas covered with gravel, bricks or flag stones. The weed must be totally killed since there is no competition from crop plants like in crop use situations. The aim of the experiment in greenhouse was to find methods to have optimal herbicide effect of K-diformate on different weed species and rape, which served as a model weed.
(§3) Seeds were sown in trays, and 2 seedlings were transplanted to 12 cm pots. The soil used was a mixture of 84% sphagnum, 10% sand and 6% clay. The pH was 5.8 and the soil was amended with balanced nutrients.
(§4) The temperature was set to 20° C. for 16 hours, 14° C. for 8 hours, but it varied ±3° C. Light period followed the natural day lengths, but artificial light was supplied 16 hours per day.
(§5) A wetting agent (0.1%) was used in order to secure complete contact with the plants to be treated. […]
(§6) Damage or injury of the plants was visually assessed after the following scale: […]

Poa annua = experiment: Greenhouse pot spray test, potassium diformate and glyphosate combinations (Example 1), Poa annua; conditions: glyphosate alone, compared with the combination
Description: as §1, §2, §3, §4, §5, §6

| SMILES | desiccation of the leaves / damage (necrosis) [1] | herbicide effect (speed and efficiency) [2] | herbicide effect (speed and efficiency) (Poa annua) | regrowth after mixing herbicide with formate ([1]; 21 days after spraying, lowest dose rates of Roundup and Titus, compared between formates) |
| --- | --- | --- | --- | --- |
| O=C[O-].O=C[O-].[Ca+2] [Ca-formate, calcium formate] | even less effective than K-formate | – | – | – |
| O=C[O-].[K+] [K-formate, Potassium formate] | less effective | – | – | – |
| O=C(O)CNCP(=O)(O)O [glyphosate] | – | much slower and very much less efficient | much slower and very much less efficient | – |
| O=CO.O=C[O-].[K+] [potassium diformate] | desiccated the leaves quickly | – | – | higher after mixing with K-diformate than mixing with Ca- or K-formate |
